{"source": "ChEMBL document CHEMBL1158434", "about": "“Discovery of a potent and brain penetrant mGluR5 positive allosteric modulator” (Bioorg Med Chem Lett, 2009)", "key": {"[1]": {"biological_target": "T1, Metabotropic glutamate receptor 5 (Homo sapiens, UniProt P41594)", "assay": "Agonist activity at human mGluR5 transiently transfected in BHK cells assessed as potentiation of L-glutamate-induced calcium flux by FLIPR assay", "assay_type": "functional, cell-based"}, "[2]": {"biological_target": "T1, Metabotropic glutamate receptor 5", "assay": "Agonist activity at human mGluR5 transiently transfected in BHK cells assessed as potentiation of L-glutamate-induced calcium flux at 10 uM by FLIPR assay"}, "[3]": {"assay": "Ratio of drug level in brain to plasma in Lister Hooded rat at 2.5 mg/kg, po by turboflow chromatography", "assay_type": "ADME, organism-based", "set-up": "dose 2.5 mg/kg, route oral", "settings": "brain and plasma"}, "[4]": {"biological_target": "T1, Metabotropic glutamate receptor 5", "assay": "Potentiation of [3H]quisqualic acid binding to human recombinant mGluR5 expressed in BHK cells at >1 uM by radioligand binding assay", "assay_type": "cell-based"}, "[5]": {"biological_target": "Metabotropic glutamate receptor 1 (Homo sapiens) (UniProt Q13255)", "sequence (Q13255 19-1194 limits assumed)": "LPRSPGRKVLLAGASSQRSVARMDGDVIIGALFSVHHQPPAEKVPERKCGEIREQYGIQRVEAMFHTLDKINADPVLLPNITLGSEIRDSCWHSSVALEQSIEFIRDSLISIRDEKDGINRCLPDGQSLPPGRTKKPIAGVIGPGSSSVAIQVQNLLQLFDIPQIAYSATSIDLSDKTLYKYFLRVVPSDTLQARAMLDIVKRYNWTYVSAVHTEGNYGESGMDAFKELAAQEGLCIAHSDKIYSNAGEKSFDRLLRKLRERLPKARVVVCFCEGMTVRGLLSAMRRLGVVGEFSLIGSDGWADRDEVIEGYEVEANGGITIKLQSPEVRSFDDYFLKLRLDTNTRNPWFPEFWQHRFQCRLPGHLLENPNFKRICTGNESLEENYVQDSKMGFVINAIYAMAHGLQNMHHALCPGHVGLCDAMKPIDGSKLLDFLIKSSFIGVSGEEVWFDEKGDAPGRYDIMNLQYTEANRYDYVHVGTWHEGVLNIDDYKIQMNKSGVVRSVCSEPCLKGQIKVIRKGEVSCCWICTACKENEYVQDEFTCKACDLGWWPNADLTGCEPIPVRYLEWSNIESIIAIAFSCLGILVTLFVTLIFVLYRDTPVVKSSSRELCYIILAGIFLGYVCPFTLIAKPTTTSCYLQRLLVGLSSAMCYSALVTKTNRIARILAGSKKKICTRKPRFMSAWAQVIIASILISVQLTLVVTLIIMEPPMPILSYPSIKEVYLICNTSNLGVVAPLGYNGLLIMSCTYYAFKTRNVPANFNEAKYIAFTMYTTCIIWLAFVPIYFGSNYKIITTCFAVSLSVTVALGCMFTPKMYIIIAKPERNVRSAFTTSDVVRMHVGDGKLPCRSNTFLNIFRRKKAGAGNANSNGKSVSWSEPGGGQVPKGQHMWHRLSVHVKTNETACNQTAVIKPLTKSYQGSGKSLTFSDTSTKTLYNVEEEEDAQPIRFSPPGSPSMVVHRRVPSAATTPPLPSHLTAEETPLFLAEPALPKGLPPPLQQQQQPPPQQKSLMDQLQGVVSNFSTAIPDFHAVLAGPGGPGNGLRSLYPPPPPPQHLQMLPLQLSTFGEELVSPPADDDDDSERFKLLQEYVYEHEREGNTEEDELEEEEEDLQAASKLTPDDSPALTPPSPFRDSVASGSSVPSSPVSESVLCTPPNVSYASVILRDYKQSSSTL", "assay": "Antagonist activity at mGluR1 at 10 uM", "assay_type": "functional"}, "[6]": {"assay": "Elimination half life in Lister Hooded rat at 2.5 mg/kg, po", "assay_type": "ADME, organism-based", "set-up": "dose 2.5 mg/kg, route oral", "settings": "in vivo, read-out: beta t1/2 (converted)"}, "[7]": {"assay": "Ratio of drug level in brain to plasma in C57/6J mouse at 5 mg/kg, po by turboflow chromatography", "assay_type": "ADME, organism-based", "set-up": "dose 5 mg/kg, route oral", "settings": "brain and plasma"}, "[8]": {"biological_target": "T1, Metabotropic glutamate receptor 5", "assay": "Agonist activity at human mGluR5 transiently transfected in BHK cells assessed as potentiation of L-glutamate-induced calcium flux at 100 nM by FLIPR assay", "assay_type": "functional, cell-based"}, "[9]": {"biological_target": "T1, Metabotropic glutamate receptor 5", "assay": "Agonist activity at human mGluR5 transiently transfected in BHK cells assessed as 5.5 fold decrease in L-glutamate EC50 for induction of calcium flux at 1 uM by FLIPR assay"}, "[10]": {"biological_target": "T1, Metabotropic glutamate receptor 5", "assay": "Agonist activity at human mGluR5 transiently transfected in BHK cells assessed as potentiation of L-glutamate-induced calcium flux at 1000 nM by FLIPR assay", "assay_type": "functional, cell-based"}, "[11]": {"assay": "Aqueous solubility at pH 7.4", "assay_type": "physicochemical", "settings": "aqueous medium"}, "[12]": {"biological_target": "T1, Metabotropic glutamate receptor 5", "assay": "Activity at human mGluR5 transiently transfected in BHK cells assessed as decrease in maximum response of L-glutamate for calcium flux at 0.60 uM by FLIPR assay", "assay_type": "functional, cell-based"}, "[13]": {"biological_target": "T1, Metabotropic glutamate receptor 5", "assay": "Displacement of [3H]MPEP from human recombinant mGluR5 expressed in BHK cells at by radioligand binding assay", "assay_type": "cell-based"}, "[14]": {"biological_target": "Metabotropic glutamate receptor 1 (Homo sapiens) (UniProt Q13255)", "assay": "Allosteric modulation of mGluR1 at 10 uM"}, "[15]": {"biological_target": "Metabotropic glutamate receptor 1 (Homo sapiens) (UniProt Q13255)", "assay": "Agonist activity at mGluR1 at 10 uM", "assay_type": "functional"}, "[16]": {"biological_target": "T1, Metabotropic glutamate receptor 5", "assay": "Displacement of [3H]quisqualic acid from human recombinant mGluR5 expressed in BHK cells by radioligand binding assay", "assay_type": "cell-based"}, "[17]": {"assay": "Elimination half life in C57/6J mouse at 5 mg/kg, po", "assay_type": "ADME, organism-based", "set-up": "dose 5 mg/kg, route oral", "settings": "in vivo, read-out: beta t1/2 (converted)"}, "[18]": {"biological_target": "T1, Metabotropic glutamate receptor 5", "assay": "Agonist activity at human mGluR5 transiently transfected in BHK cells assessed as potentiation of L-glutamate-induced calcium flux by FLIPR assay relative to L-glutamate", "assay_type": "functional, cell-based"}}, "note": "Active and inactive are the calls of the source. The rule behind the calls is not given here.", "data": [{"smiles": "O=C(NCc1ccsc1)c1ccc(C#Cc2ccccc2)nc1", "values": [{"measurement": "EC50", "setting": "[1]", "value": 140, "unit": "nM"}]}, {"smiles": "O=C(NCc1ccsc1)c1ccc(C#Cc2ccccc2)cc1", "values": [{"measurement": "EC50", "setting": "[1]", "value": 1200, "unit": "nM"}]}, {"smiles": "O=C(c1ccc(C#Cc2ccccc2)nc1)N1CCOCC1", "values": [{"measurement": "EC50", "setting": "[1]", "value": 990, "unit": "nM"}]}, {"smiles": "CC1CCN(C(=O)c2ccc(C#Cc3ccccc3)cc2)CC1", "values": [{"measurement": "EC50", "setting": "[1]", "value": 720, "unit": "nM"}]}, {"smiles": "CC1CCN(C(=O)c2ccc(C#Cc3ccccc3)nc2)CC1", "values": [{"measurement": "EC50", "setting": "[1]", "value": 130, "unit": "nM"}]}, {"smiles": "CCOC(=O)c1ccc(C#Cc2ccccc2)nc1", "values": [{"measurement": "EC50", "setting": "[2]", "value": "Not Active"}]}, {"smiles": "CC1CCC(NC(=O)c2ccc(C#Cc3ccccc3)nc2)CC1", "note": "(stereo not drawn)", "values": [{"measurement": "EC50", "setting": "[1]", "value": 1200, "unit": "nM"}]}, {"smiles": "O=C(c1ccc(C#Cc2ccccc2)nc1)N1CCSCC1", "values": [{"measurement": "EC50", "setting": "[1]", "value": 46, "unit": "nM"}]}, {"smiles": "CC(C)CCNC(=O)c1ccc(C#Cc2ccccc2)nc1", "values": [{"measurement": "EC50", "setting": "[1]", "value": 510, "unit": "nM"}]}, {"smiles": "CN1CCN(C(=O)c2ccc(C#Cc3ccccc3)cc2)CC1", "values": [{"measurement": "EC50", "setting": "[1]", "value": 3100, "unit": "nM"}]}, {"smiles": "O=C(c1ccc(C#Cc2ccccc2)nc1)N1CCCCC1", "values": [{"measurement": "EC50", "setting": "[1]", "value": 280, "unit": "nM"}]}, {"smiles": "CN1CCN(C(=O)c2ccc(C#Cc3ccccc3)nc2)CC1", "values": [{"measurement": "EC50", "setting": "[1]", "value": 1600, "unit": "nM"}]}, {"smiles": "O=C(NCc1ccco1)c1ccc(C#Cc2ccccc2)nc1", "values": [{"measurement": "EC50", "setting": "[1]", "value": 180, "unit": "nM"}]}, {"smiles": "O=C(NC1CCCC1)c1ccc(C#Cc2ccccc2)nc1", "values": [{"measurement": "Kp", "setting": "[3]", "value": 0.3}, {"measurement": "Activity", "setting": "[4]", "value": 30, "unit": "%"}, {"measurement": "Activity", "setting": "[5]", "value": "inactive"}, {"measurement": "half-life", "setting": "[6]", "value": 4, "unit": "h"}, {"measurement": "Kp", "setting": "[7]", "value": 0.5}, {"measurement": "Activity", "setting": "[8]", "value": "Active"}, {"measurement": "Activity", "setting": "[9]", "value": "Active"}, {"measurement": "Activity", "setting": "[10]", "value": "Active"}, {"measurement": "solubility", "setting": "[11]", "value": 1.7, "unit": "µM"}, {"measurement": "Activity", "setting": "[12]", "value": "Active"}, {"measurement": "Ki", "setting": "[13]", "value": 1800, "unit": "nM"}, {"measurement": "Activity", "setting": "[14]", "value": "inactive"}, {"measurement": "Activity", "setting": "[15]", "value": "inactive"}, {"measurement": "EC50", "setting": "[1]", "value": 30, "unit": "nM"}, {"measurement": "Activity", "setting": "[16]", "value": "inactive"}, {"measurement": "half-life", "setting": "[17]", "value": 1, "unit": "h"}]}, {"smiles": "C(#Cc1ccc(C(N2CCOCC2)N2CCOCC2)cc1)c1ccccc1", "values": [{"measurement": "Activity", "setting": "[18]", "value": 73, "unit": "%"}, {"measurement": "EC50", "setting": "[1]", "value": 970, "unit": "nM"}]}, {"smiles": "O=C(NC1CCCCC1)c1ccc(C#Cc2ccccc2)nc1", "values": [{"measurement": "EC50", "setting": "[1]", "value": 240, "unit": "nM"}]}, {"smiles": "NC(=O)c1ccc(C#Cc2ccccc2)nc1", "values": [{"measurement": "EC50", "setting": "[1]", "value": 6600, "unit": "nM"}]}]}
